Results as given in publication PMC7949049 (The Journal of Biological Chemistry, 2020).
“Also recorded” adds a separate entry of the source. Positions of bridges follow the written chain, without caps; N, C: chain ends. Non-standard residues stand in square brackets, D forms with d. Residues, ends and D or L forms follow the SMILES beside them. No end group written: not given here. *: point of attachment. 5FAM = O=C1OC2(c3ccc(O)cc3Oc3cc(O)ccc32)c2ccc(C(=O)*)cc21; S5 = C=CCCC[C@](C)(N)C(=O)O; PEG2 = NCCOCCOCCC(=O)O

Columns and labels:
RalA·GDP = molecular target: T1, RalA·GDP (Homo sapiens, UniProt P11233, Q72L); experiment: Direct-binding fluorescence polarization, RalA·GDP; conditions: 20 nM FAM-labeled peptide, n = 3, NB = no binding; for Kd: read-out: Kd RalA·GDP, FP
T1 construct: RalA (pMAT10, residues 1–184, Q72L); His6-MBP (cleaved yes); made in house
T1 sequence (P11233 1-184 Q72L): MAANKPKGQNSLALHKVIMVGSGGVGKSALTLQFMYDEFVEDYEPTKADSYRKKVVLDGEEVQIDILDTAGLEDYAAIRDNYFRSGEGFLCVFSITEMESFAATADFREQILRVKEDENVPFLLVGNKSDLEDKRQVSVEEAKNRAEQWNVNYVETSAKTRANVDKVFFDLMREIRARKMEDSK
Protocol: (§1) FP experiments were performed on a BMG Labtech Pherastar fluorimeter at 298 K with excitation at 485 nm and emission at 520 nm as described previously ([34]), using 20 nM FAM-labeled peptide. Plates were read after 30 min incubation at room temperature. Data were fitted to a single-site binding model using nonlinear regression analysis in GraphPad prism 8.4 to obtain Kd values and their standard errors.

RhoA·GMPPNP = molecular target: T2, RhoA·GMPPNP (Homo sapiens, UniProt P61586, F25N/Q63L); experiment: Direct-binding fluorescence polarization, RhoA; conditions: 20 nM FAM-labeled peptide, n = 3, NB = no binding, GTPase up to 100 μM; for Kd: read-out: Kd RhoA·GMPPNP, FP
T2 construct: RhoA (pGEX-2T, 1–186, F25N/Q63L); GST (cleaved yes); made in house
Protocol: as §1

Rac1·GMPPNP = molecular target: T3, Rac1·GMPPNP (Homo sapiens, UniProt P63000, Q61L); experiment: Direct-binding fluorescence polarization, Rac1; conditions: 20 nM FAM-labeled peptide, n = 3, NB = no binding, GTPase up to 100 μM; for Kd: read-out: Kd Rac1·GMPPNP, FP
T3 construct: Rac1 (pGEX-2T, 1–185, Q61L); GST (cleaved yes); made in house
Protocol: as §1

RalA = experiment: Direct-binding SPA of RalA to His-tagged RLIP76 RBD variants; conditions: 80 nM His-tagged RBD, n = 2; for apparent Kd RalA, direct SPA (Fig. S1): [3H]GTP-labelled RalA titrated, experiment of Fig. S1
Protocol: Ral proteins were labeled with [^3H]GTP for use in SPAs as follows. [^3H]GTP (0.15 mCi, PerkinElmer Life Sciences) was dried by centrifugal evaporation. Ral (0.7 mg) and 0.3 M (NH4)2SO4 were added in 140 μl of buffer (10 mM Tris-HCl, 150 mM NaCl, 1 mM DTT, pH 7.5). The mixture was incubated at 37 °C for 3 h, and unbound nucleotide was removed with Sephadex G25 spin columns (GE Healthcare).
[^3H]GTP·Ral proteins were titrated at the concentrations indicated in the results. […] The equilibrium binding constants (Kd) for the effector–Ral interactions were determined by monitoring the SPA signal in the presence of varying concentrations of [^3H]GTP·Ral and fitted using nonlinear regression with the computer program Grafit.

[1] = molecular target: T4, RalA (residues 1–184, Q72L) (UniProt P11233 1-184, Q72L); experiment: scintillation proximity assay (competition); His-tagged wild-type RLIP76 RBD immobilised on SPA beads, fixed [3H]GTP·RalA (100 nM) or [3H]GTP·RalB (250 nM), competitor RBD or peptide titrated; pure competition model, apparent Kd (Ki); conditions: both partners purified
T4 construct: RalA small GTPase, residues 1-184, constitutively active Q72L; Loaded with [3H]GTP for SPA, with GMPPNP or GDP for fluorescence polarisation; also called RalA·GTP; [3H]-GTP RalA; source: expressed from pMAT10 as His6-MBP fusion, cleaved from its tag as described previously
T4 sequence (looked up): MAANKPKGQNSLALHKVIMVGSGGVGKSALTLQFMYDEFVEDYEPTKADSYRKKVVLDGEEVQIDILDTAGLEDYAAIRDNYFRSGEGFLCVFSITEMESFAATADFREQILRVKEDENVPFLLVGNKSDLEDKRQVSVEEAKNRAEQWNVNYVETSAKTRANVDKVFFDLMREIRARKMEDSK

[2] = molecular target: T4, RalA (residues 1–184, Q72L); experiment: scintillation proximity assay (competition); GST-tagged Sec5 RBD immobilised on SPA beads, fixed [3H]-GTP RalA, peptides or RLIP76 RBD titrated; pure competition model, apparent Kd (Ki); conditions: both partners purified
[3] = molecular target: T5, RalA (residues 1-184, Q72L) (UniProt P11233 1-184, Q72L); experiment: fluorescence polarisation; direct binding of 20 nM FAM-labelled peptide to varying concentrations of small GTPase; 298 K; read after 30 min at room temperature; single-site binding model; n >= 2; conditions: both partners purified
T5 construct: RalA small GTPase, residues 1-184, constitutively active Q72L; Loaded with [3H]GTP for the SPAs; also called [3H]GTP-labelled RalA; source: expressed from pMAT10 as His6-MBP fusion, prepared and cleaved from its tags as described previously
T5 sequence (looked up): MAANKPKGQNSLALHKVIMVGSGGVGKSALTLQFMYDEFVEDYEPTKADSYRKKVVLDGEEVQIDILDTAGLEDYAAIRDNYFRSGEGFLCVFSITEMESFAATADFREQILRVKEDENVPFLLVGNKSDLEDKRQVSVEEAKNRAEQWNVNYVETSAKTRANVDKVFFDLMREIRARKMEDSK

[4] = molecular target: T6, RalB (residues 1-185, Q72L) (UniProt P11234 1-185, Q72L); experiment: as above; conditions: both partners purified
T6 construct: source: expressed from pMAT10 as His6-MBP fusion, prepared and cleaved from its tags as described previously
T6 sequence (looked up): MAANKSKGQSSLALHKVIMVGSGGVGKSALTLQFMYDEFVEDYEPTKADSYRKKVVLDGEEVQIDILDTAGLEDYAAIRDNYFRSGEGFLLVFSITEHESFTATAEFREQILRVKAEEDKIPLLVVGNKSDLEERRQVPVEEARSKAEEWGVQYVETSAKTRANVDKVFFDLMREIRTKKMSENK

[5] = molecular target: T4, RalA (residues 1–184, Q72L); experiment: scintillation proximity assay (competition); His-tagged wild-type RLIP76 RBD immobilised on SPA beads, fixed [3H]GTP·RalA (100 nM) or [3H]GTP·RalB (250 nM), competitor RBD or peptide titrated; pure competition model, apparent Kd (Ki); conditions: both partners purified; remark: listed apart in the source
[6] = molecular target: T7, RalB (residues 1–185, Q72L) (UniProt P11234 1-185, Q72L); experiment: as above; conditions: both partners purified
T7 construct: Loaded with [3H]GTP for SPA, with GMPPNP for ITC, FP and crystallisation; also called RalB·GTP; source: expressed from pMAT10 as His6-MBP fusion, cleaved from its tag as described previously
T7 sequence (looked up): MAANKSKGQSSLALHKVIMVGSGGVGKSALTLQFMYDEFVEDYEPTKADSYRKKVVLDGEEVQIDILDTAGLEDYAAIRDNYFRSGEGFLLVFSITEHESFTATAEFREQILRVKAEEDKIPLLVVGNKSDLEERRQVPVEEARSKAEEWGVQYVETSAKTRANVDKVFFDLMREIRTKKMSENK

T2 sequence (P61586 1-186 F25N/Q63L): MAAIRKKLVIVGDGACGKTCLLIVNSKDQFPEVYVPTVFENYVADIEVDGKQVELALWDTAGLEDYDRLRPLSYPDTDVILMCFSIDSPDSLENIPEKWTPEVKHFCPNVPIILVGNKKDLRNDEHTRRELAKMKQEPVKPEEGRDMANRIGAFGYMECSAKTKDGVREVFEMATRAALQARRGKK

CC[C@H](C)[C@H](NC(=O)[C@H](CCCNC(=N)N)NC(=O)[C@H](CC(C)C)NC(=O)[C@H](CCC(=O)O)NC(=O)[C@H](CCC(=O)O)NC(=O)[C@H](Cc1c[nH]c2ccccc12)NC(=O)[C@H](CC(C)C)NC(=O)[C@]1(C)CCCC=CCCC[C@](C)(NC(=O)[C@H](CC(C)C)NC(=O)CCOCCOCCNC(=O)c2ccc3c(c2)C(=O)OC32c3ccc(O)cc3Oc3cc(O)ccc32)C(=O)N[C@@H](CCCCN)C(=O)N[C@@H](CCC(=O)O)C(=O)N[C@@H](Cc2c[nH]cn2)C(=O)N1)C(=O)N[C@@H](CCCCN)C(=O)N[C@H](C(=O)N[C@@H](C)C(=O)N[C@@H](CCC(=O)O)C(=O)N[C@@H](CCCNC(=N)N)C(=O)N[C@@H](CCCNC(=N)N)C(=O)N[C@@H](CCCCN)C(=O)N[C@@H](CCCCN)C(=O)N[C@@H](CCCNC(=N)N)C(=O)N[C@@H](CCC(=O)O)C(=O)N[C@@H](C)C(N)=O)[C@@H](C)O [HLR-sol] ({5FAM-PEG2}-L[S5]KEH[S5]LWEELRIKTAERRKKREA-NH2; staple 2-6)
Kd RalA·GDP, FP (RalA·GDP): binding was too weak
Kd (RalA·GDP): > 100 µM
Kd RhoA·GMPPNP, FP (RhoA·GMPPNP): binding was too weak
Kd (RhoA·GMPPNP): > 100 µM
Kd Rac1·GMPPNP, FP (Rac1·GMPPNP): binding was too weak
Kd (Rac1·GMPPNP): > 100 µM

CC[C@H](C)[C@H](NC(=O)[C@H](CCCNC(=N)N)NC(=O)[C@H](CC(C)C)NC(=O)[C@H](CCC(=O)O)NC(=O)[C@H](CCC(=O)O)NC(=O)[C@H](Cc1c[nH]c2ccccc12)NC(=O)[C@H](CC(C)C)NC(=O)[C@]1(C)CCCC=CCCC[C@](C)(NC(=O)[C@H](CC(C)C)NC(=O)CCOCCOCCNC(=O)c2ccc3c(c2)C(=O)OC32c3ccc(O)cc3Oc3cc(O)ccc32)C(=O)N[C@@H](CCCCN)C(=O)N[C@@H](CCC(=O)O)C(=O)N[C@@H](CCC(=O)O)C(=O)N1)C(=O)N[C@@H](CCCCN)C(=O)N[C@H](C(=O)N[C@@H](C)C(=O)N[C@@H](CCC(=O)O)C(=O)N[C@@H](CCCCN)C(=O)N[C@@H](CCCNC(=N)N)C(=O)N[C@@H](CCCCN)C(=O)N[C@@H](CCCCN)C(=O)N[C@@H](CCCNC(=N)N)C(=O)N[C@@H](CCC(=O)O)C(=O)N[C@@H](C)C(N)=O)[C@@H](C)O [L-sol] ({5FAM-PEG2}-L[S5]KEE[S5]LWEELRIKTAEKRKKREA-NH2; staple 2-6)
Kd RalA·GDP, FP (RalA·GDP): binding was too weak
Kd (RalA·GDP): > 100 µM
Kd RhoA·GMPPNP, FP (RhoA·GMPPNP): binding was too weak
Kd (RhoA·GMPPNP): > 100 µM
Kd Rac1·GMPPNP, FP (Rac1·GMPPNP): binding was too weak
Kd (Rac1·GMPPNP): > 100 µM

ETQAGIKEEIRRQEFLLNSLHRDLQGGIKDLSKWDRAWEVSQILSALRRKLREA [WDASQSR]
apparent Kd RalA, direct SPA (Fig. S2) (RalA; [3H]GTP-labeled RalA titrated, experiment of Fig. S2): no fit could be obtained as binding was too weak; also recorded: did not bind

LTTLR mutant: His-tagged RLIP76 RBD consensus sequence lacking the K440P substitution (ETQAGIKEEIRRQEFLLNSLHRDLQGGIKDLSKLTRLWEVTLILRALKRKLREA; also: His-tagged, tag position not given here)
apparent Kd RalA, direct SPA (Fig. S1) (RalA): no fit could be obtained as binding was too weak
apparent Kd RalA, direct SPA (Fig. S1) (RalA; listed as E426L/E427T/Q433T/R434L/T437R): did not bind

B1: wt-sol stapled peptide (peptide)
chain: L[S5]KEE[S5]LWEEQRIKTAEKRKKREA-NH2
modifications: staple 2-6; N-terminus assumed
SMILES: CC[C@H](C)[C@H](NC(=O)[C@H](CCCNC(=N)N)NC(=O)[C@H](CCC(N)=O)NC(=O)[C@H](CCC(=O)O)NC(=O)[C@H](CCC(=O)O)NC(=O)[C@H](Cc1c[nH]c2ccccc12)NC(=O)[C@H](CC(C)C)NC(=O)[C@]1(C)CCCC=CCCC[C@](C)(NC(=O)[C@@H](N)CC(C)C)C(=O)N[C@@H](CCCCN)C(=O)N[C@@H](CCC(=O)O)C(=O)N[C@@H](CCC(=O)O)C(=O)N1)C(=O)N[C@@H](CCCCN)C(=O)N[C@H](C(=O)N[C@@H](C)C(=O)N[C@@H](CCC(=O)O)C(=O)N[C@@H](CCCCN)C(=O)N[C@@H](CCCNC(=N)N)C(=O)N[C@@H](CCCCN)C(=O)N[C@@H](CCCCN)C(=O)N[C@@H](CCCNC(=N)N)C(=O)N[C@@H](CCC(=O)O)C(=O)N[C@@H](C)C(N)=O)[C@@H](C)O
Kd [1]: 48.6 µM

B2: HLR-sol stapled peptide (peptide)
chain: L[S5]KEH[S5]LWEELRIKTAERRKKREA-NH2
modifications: staple 2-6; N-terminus assumed
SMILES: CC[C@H](C)[C@H](NC(=O)[C@H](CCCNC(=N)N)NC(=O)[C@H](CC(C)C)NC(=O)[C@H](CCC(=O)O)NC(=O)[C@H](CCC(=O)O)NC(=O)[C@H](Cc1c[nH]c2ccccc12)NC(=O)[C@H](CC(C)C)NC(=O)[C@]1(C)CCCC=CCCC[C@](C)(NC(=O)[C@@H](N)CC(C)C)C(=O)N[C@@H](CCCCN)C(=O)N[C@@H](CCC(=O)O)C(=O)N[C@@H](Cc2c[nH]cn2)C(=O)N1)C(=O)N[C@@H](CCCCN)C(=O)N[C@H](C(=O)N[C@@H](C)C(=O)N[C@@H](CCC(=O)O)C(=O)N[C@@H](CCCNC(=N)N)C(=O)N[C@@H](CCCNC(=N)N)C(=O)N[C@@H](CCCCN)C(=O)N[C@@H](CCCCN)C(=O)N[C@@H](CCCNC(=N)N)C(=O)N[C@@H](CCC(=O)O)C(=O)N[C@@H](C)C(N)=O)[C@@H](C)O
Kd [2]: 1.74 µM
Kd [1]: 2.97 µM

B3: HLR-SP1, FAM-labelled stapled peptide of the RLIP76 RBD α2 helix (residues 423-446) with the HLR substitutions (E427H/Q433L/K440R) (peptide)
chain: 5FAM-L[S5]KEH[S5]LWEVLRILTALRRKLREA
modifications: staple 2-6
Kd [3]: 4.68 µM
Kd [4]: 0.159 µM

B4: RLIP76 RBD WNASELR mutant (domain or fragment)
chain: ETQAGIKEEIRRQEFLLNSLHRDLQGGIKDLSKWNRAWEVSEILLALRRKLREA
notes: RLIP76 residues 423-446 (helix α2); Selected by CIS display; source: E. coli, recombinant; cleaved from its tag
Kd [5]: 2.75 µM
Kd [6]: 10.3 µM

B5: RLIP76 RBD WDASTAY mutant (domain or fragment)
chain: ETQAGIKEEIRRQEFLLNSLHRDLQGGIKDLSKWDRAWEVSTILAALYRKLREA
notes: as for B4
Kd [5]: 0.53 µM
Kd [6]: 1.2 µM

B6: SP1, FAM-labelled stapled peptide of the RLIP76 RBD α2 helix (residues 423-446, staple bridging residues 424 to 428) (peptide)
chain: 5FAM-L[S5]KEE[S5]LWEVQRILTALKRKLREA
modifications: staple 2-6
Kd [3]: 17.2 µM
Kd [4]: 4.7 µM
